Experimental data taken from US20150164762A1, “USE OF ETHANOLAMINE PHOSPHATE” (priority 2012, published 2015).

How the values were obtained:
[1] = tested on: TNF-α; assay: ELISA of TNF-α secreted from THP-1 cells, with or without LPS; type: cell-based, human
Description: (§1) Human monocytic cultured THP-1 cells were cultured logarithmically as follows in 10% FBS RPMI-1640 growth culture. Cells were seeded to 4×10^5/ml on a 24-well plate (500 μl/well), additional growth culture containing EP was added, and finally the EP concentration was adjusted to the target concentration (0.1 mM, 1 mM). 2 hours after EP administration, further growth medium containing lipopolysaccharides (LPS) was added, and adjusted to concentrations of 0.1 μg/ml and 1 μg/ml.
(§2) 4 hours and 24 hours after lipopolysaccharide administration, the medium was collected, the cells were precipitated by centrifugation, and the supernatant was used as an ELISA sample. As in the Singh et al. report, the inflammatory cytokine TNF-α and the chemokine IL-8, which attracts inflammatory cells, were used as ELISA measurement indicators.

[2] = tested on: HL-60; assay: WST-8 proliferation test, HL-60 floating cells; type: cell-based, human; conditions: 0% FBS, 72 hours, even at high concentrations
Description: THP-1 (human acute monocytic leukemia cells) and HL-60 (human myeloid leukemia cells) were logarithmically growth cultured in 10% FBS RPMI-1640 to 2 to 10×10^5 cells/cm^2 to achieve logarithmic growth before EP administration. The cell culture liquid was then centrifuged and precipitated at 1000 rpm, and 90 μl per well was dispensed onto a 96-well plate to 2×10^4 cells/cm^2 in 0% FBS RPMI-1640. […] For the WST-8 assay of the floating cells, 10 μl per well of WST-8 assay reagent was added directly to the cell suspension during culture, and after 1 hour absorbance at 450 nm and 600 nm was measured with a plate reader and the data were analyzed as in the examples above.

[3] = tested on: BEAS-2B; assay: Cell toxicity of H2O2 after EP pre-treatment (WST-8 assay); type: cell-based, human
Description: Cells of the normal airway epithelial cell line BEAS-2B were seeded at a density of 1×10^5/cm^2 on a 96-well plate, and after 24 hours the medium was replaced with 0.5% FBS RPMI 1640 containing EP at final concentrations of 0, 250 and 500 μM. 24 hours after medium replacement the medium was replaced with 0.5% FBS RPMI-1640, and serially diluted H2O2 was administered (n=4). 24 hours after H2O2 administration a cell toxicity test WST-8 assay (Cell Counting Kit-8, Dojindo) was performed. For the data analysis, the 50% cell death concentration EC50 was calculated with GraphPad Prism 5 statistical analysis software.

[4] = tested on: A549; assay: WST-8 proliferation test, A549 cancer cells; type: cell-based, human; conditions: 0% FBS, 96 hours, even at high concentrations
Description: 0% FBS RPMI-1640 was used as the medium. 24 hours after seeding the cells were washed with 20 μl per well of PBS, and the medium was replaced with 0% FBS RPMI-1640. Following medium replacement, EP solution with 10 times the set concentration was added 10 μl per well, and a proliferation test (WST-8 assay) was performed 96 hours after addition of EP.

[5] = tested on: HHDPC cells; assay: WST-8 proliferation test, primary normal human hair dermal papilla cells (HHDPC)
Description: HHDPC cells (Cosmo Bio) were seeded to 1×10^4 cells/cm^2 on a 96-well plate. Complete MSCM medium (500, ScienCell) was used as the medium. After 24 hours, the cells were washed gently with 200 μl per well of PBS, the medium was replaced with 90 μl per well of 0% FBS DMEM with 1 vol % of complete MSCM medium added thereto, and the cells were cultured for 24 hours. After culture, 10 μl per well of EP solution was added, and a proliferation test (WST-8 assay) was performed 6 days after EP administration. The WST-8 assay was performed as in Example 1. The same test was performed using minoxidil, which has a clinical hair growth effect.

[6] = tested on: IL-8; assay: ELISA of IL-8 secreted from THP-1 cells, with or without LPS; type: cell-based, human
Description: as §1, §2

[7] = 4 hours and 24 hours of stimulus, EP 0.1 mM, 1 mM
[8] = cells not treated with LPS, 26 hours, 1 mM EP

## NCCOP(=O)(O)O [EP, Ethanolamine phosphate]
[1]; [7]
  secretion of LPS-induced TNF-α: dose-dependently suppressed
[1]; LPS 1 μg/ml, 24 hours of stimulus, EP 1 mM
  amount of TNF-α induced by LPS stimulus: about 70 pg/ml
[1]; [8]
  TNF-α secretion, reduced to % of untreated: about 78%
[2]
  cell proliferation ability: absolutely no cell proliferation ability
[3]; EP pre-treatment 250 uM
  Toxity reduction rate % (H2O2 cytotoxicity): 33%
[3]; EP pre-treatment 500 uM
  Toxity reduction rate % (H2O2 cytotoxicity): 28%
[3]; pre-treatment with 250 to 500 μM of EP
  reduction of the cytotoxicity of H2O2: about 30%
[4]
  cell proliferation ability: absolutely no cell proliferation ability
[5]; 6 days
  effective concentration range for proliferative effect: very broad concentration range
  proliferative effect: equal to or greater than that of minoxidil
[5]; high concentrations
  cell toxicity: non-toxic
[6]; [7]
  secretion of LPS-induced IL-8: dose-dependently suppressed
[6]; [8]
  IL-8 secretion, reduced to % of untreated: about 43%
